Experimental data from the Kinase Knowledgebase extract (Sharma et al. 2016).
Several values for one entry are separate records, joined by “and”; a condition that tells them apart may be missing. Equal entries are not always repeated.

target: MAPK14 (UniProt Q16539); experiment: Inhibition of MAPK14 Kinase Activity
Sequence (Q16539 whole entry, looked up): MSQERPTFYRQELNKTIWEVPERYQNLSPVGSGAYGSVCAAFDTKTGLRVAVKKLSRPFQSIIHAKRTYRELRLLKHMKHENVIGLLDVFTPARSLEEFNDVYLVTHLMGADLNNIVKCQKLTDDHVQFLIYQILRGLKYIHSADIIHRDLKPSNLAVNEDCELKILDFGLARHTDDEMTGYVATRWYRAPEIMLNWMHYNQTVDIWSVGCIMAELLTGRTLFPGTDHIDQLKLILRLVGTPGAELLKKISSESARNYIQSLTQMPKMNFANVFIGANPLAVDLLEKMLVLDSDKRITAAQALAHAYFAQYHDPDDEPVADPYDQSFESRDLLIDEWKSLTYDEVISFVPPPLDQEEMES

IC50 | Compound
< 5 µM | Cn1nc(C(C)(C)C)cc1NC(=O)Nc1ccc(OC2CCN(C(=O)c3sccc3Cl)CC2)cc1
< 5 µM | Cc1ccc(-n2nc(C(C)(C)C)cc2NC(=O)Nc2ccc(N3CCN(S(=O)(=O)C4CC4)CC3)cc2)cc1
< 5 µM | CC(C)n1nc(C(C)(C)C)cc1NC(=O)Nc1ccc(CN2CCN(C(=O)c3ccc(F)cc3F)CC2)c(F)c1
< 5 µM | Cc1ccc(-n2nc(C(C)(C)C)cc2NC(=O)Nc2ccc(N3CCN(C(=O)C4CC4)CC3)cc2)cc1
< 5 µM | CC(C)n1nc(C(C)(C)C)cc1NC(=O)Nc1ccc(CN2CCN(C(=O)c3c(F)cccc3F)CC2)cc1
< 5 µM | Cc1ccc(-n2nc(C(C)(C)C)cc2NC(=O)Nc2ccc(CN3CCN(C(=O)C4CC4)CC3)cc2)cc1
< 5 µM | Cc1ccc(-n2nc(C(C)(C)C)cc2NC(=O)Nc2ccc(N3CCN(C(=O)C4CC4C)CC3)cc2)cc1 (centres undefined)
< 5 µM | Cn1nc(C(C)(C)C)cc1NC(=O)Nc1ccc(OC2CCN(C(=O)c3ccncc3)CC2)cc1
< 5 µM | Cn1nc(C(C)(C)C)cc1NC(=O)Nc1cc(F)cc(OC2CCN(C(=O)c3c(F)cccc3Cl)CC2)c1
< 5 µM | Cc1ccc(-n2nc(C(C)(C)C)cc2NC(=O)Nc2ccc(CN3CCN(C(=O)c4c(Cl)cccc4Cl)CC3)cc2)cc1
< 5 µM | Cn1nc(C(C)(C)C)cc1NC(=O)Nc1ccc(N2CCN(C(=O)c3c(Cl)cccc3Cl)CC2)cc1
< 5 µM | Cn1nc(C(C)(C)C)cc1NC(=O)Nc1cc(F)cc(OC2CCN(C(=O)C3CC3)CC2)c1
< 5 µM | Cc1cc(C(=O)N2CCC(Oc3cccc(NC(=O)Nc4cc(C(C)(C)C)nn4C)c3)CC2)c(C)[nH]1
< 5 µM | Cn1nc(C(C)(C)C)cc1NC(=O)Nc1cccc(OC2CCN(C(=O)c3c(F)cccc3F)CC2)c1
< 5 µM | Cn1nc(C(C)(C)C)cc1NC(=O)Nc1ccc(OC2CCN(C(=O)Oc3ccccc3C(F)(F)F)CC2)cc1
< 5 µM | COc1ccccc1C(=O)N1CCN(Cc2ccc(NC(=O)Nc3cc(C(C)(C)C)nn3C)cc2)CC1
< 5 µM | Cn1nc(C(C)(C)C)cc1NC(=O)Nc1cc(OC2CCN(C(=O)c3c(F)cccc3F)CC2)cc(C(F)(F)F)c1
< 5 µM | Cn1nc(C(C)(C)C)cc1NC(=O)Nc1cccc(OC2CCN(C(=O)c3ccccc3)CC2)c1
< 5 µM | Cn1nc(C(C)(C)C)cc1NC(=O)Nc1ccc(OC2CCN(C(=O)C3CC3)CC2)cc1
< 5 µM | Cn1nc(C(C)(C)C)cc1NC(=O)Nc1cc(F)cc(OC2CCN(C(N)=O)CC2)c1
< 5 µM | Cn1nc(C(C)(C)C)cc1NC(=O)Nc1cccc(OC2CCN(C(=O)c3ccccc3F)CC2)c1

IC50 | Compound
< 5 µM | Cn1nc(C(C)(C)C)cc1NC(=O)Nc1ccc(CN2CCN(C(=O)c3ccc(F)cc3Cl)CC2)cc1
< 5 µM | Cn1nc(C(C)(C)C)cc1NC(=O)Nc1cccc(OC2CCN(C(=O)c3ccccc3Cl)CC2)c1
< 5 µM | Cc1ccc(OC2CCN(C(=O)c3ccccc3Cl)CC2)cc1NC(=O)Nc1cc(C(C)(C)C)nn1C
< 5 µM | Cn1nc(C(C)(C)C)cc1NC(=O)Nc1ccc(OC2CCN(C(=O)c3ccc(Cl)s3)CC2)cc1
< 5 µM | Cn1nc(C(C)(C)C)cc1NC(=O)Nc1ccc(OC2CCN(C(=O)c3ccccc3Cl)CC2)cc1
< 5 µM | Cc1cc(C(=O)N2CCC(Oc3cc(F)cc(NC(=O)Nc4cc(C(C)(C)C)nn4C)c3)CC2)c(C)[nH]1
< 5 µM | Cn1nc(C(C)(C)C)cc1NC(=O)Nc1ccc(OC2CCN(C(=O)c3ccccc3)CC2)cc1
< 5 µM | CC(C)(C)c1cc(NC(=O)Nc2ccc(OC3CCN(C(=O)c4c(Cl)cccc4Cl)CC3)cc2)[nH]n1
< 5 µM | Cn1nc(C(C)(C)C)cc1NC(=O)Nc1cc(F)cc(OC2CCN(C(=O)c3c(F)cccc3F)CC2)c1
< 5 µM | COc1cccc(F)c1C(=O)N1CCC(Oc2cc(F)cc(NC(=O)Nc3cc(C(C)(C)C)nn3C)c2)CC1
< 5 µM | CC(C)(C)c1cc(NC(=O)Nc2ccc(OC3CCN(C(=O)c4ccccc4Cl)CC3)cc2)[nH]n1
< 5 µM | Cn1nc(C(C)(C)C)cc1NC(=O)Nc1ccc(CN2CCN(C(=O)c3c(Cl)cccc3Cl)CC2)cc1
< 5 µM | COc1ccc(C(=O)N2CCC(Oc3cc(F)cc(NC(=O)Nc4cc(C(C)(C)C)nn4C)c3)CC2)c(OC)n1
< 5 µM | Cn1nc(C(C)(C)C)cc1NC(=O)Nc1cccc(OC2CCN(C(=O)c3ccccc3C(F)(F)F)CC2)c1
0.091 µM | Cc1ccc(-n2nc(C(C)(C)C)cc2NC(=O)Nc2ccc(N3CCN(C(=O)C(C)(C)C)CC3)cc2)cc1
< 5 µM | Cc1ccc(-n2nc(C(C)(C)C)cc2NC(=O)NC2CCN(C(=O)c3ccc(S(C)(=O)=O)cc3)CC2)cc1
< 5 µM | COc1ccc(C(=O)N2CCC(Oc3cccc(NC(=O)Nc4cc(C(C)(C)C)nn4C)c3)CC2)c(OC)n1
< 5 µM | Cc1ccc(-n2nc(C(C)(C)C)cc2NC(=O)Nc2ccc(OC3CCN(C(=O)C4CC4)CC3)cc2)cc1
< 5 µM | Cc1ccc(-n2nc(C(C)(C)C)cc2NC(=O)Nc2ccc(OCC3CCN(C(=O)c4c(Cl)cccc4Cl)CC3)c3ccccc23)cc1
0.01 µM and < 5 µM | Cn1nc(C(C)(C)C)cc1NC(=O)Nc1ccc(CN2CCN(C(=O)c3c(F)cccc3F)CC2)cc1
< 5 µM | Cn1nc(C(C)(C)C)cc1NC(=O)Nc1ccc(CN2CCN(C(=O)c3cccnc3)CC2)cc1

IC50 | Compound
< 5 µM | Cn1nc(C(C)(C)C)cc1NC(=O)Nc1cccc(OC2CCN(C(=O)c3ccc(F)cc3F)CC2)c1
< 5 µM | Cn1nc(C(C)(C)C)cc1NC(=O)Nc1cccc(C2CCN(C(=O)c3c(Cl)cccc3Cl)CC2)c1
< 5 µM | Cc1ccc(-n2nc(C(C)(C)C)cc2NC(=O)Nc2cc(F)cc(OC3CCN(C(=O)c4ccccc4F)CC3)c2)cc1
< 5 µM | CCn1nc(C(C)(C)C)cc1NC(=O)Nc1ccc(CN2CCN(C(=O)c3c(Cl)cccc3Cl)CC2)cc1F
< 5 µM | Cn1nc(C(C)(C)C)cc1NC(=O)Nc1ccc(CN2CCN(C(=O)c3c(F)cccc3F)CC2)c(F)c1
< 5 µM | Cn1nc(C(C)(C)C)cc1NC(=O)Nc1cccc(OC2CCN(C(=O)c3c(F)cccc3Cl)CC2)c1
< 5 µM | Cn1nc(C(C)(C)C)cc1NC(=O)Nc1ccc(CN2CCN(C(=O)c3c(F)cccc3Cl)CC2)cc1
< 5 µM | Cc1ccc(-n2nc(C(C)(C)C)cc2NC(=O)Nc2ccc(N3CCN(C(=O)CC4CCCC4)CC3)cc2)cc1
< 5 µM | Cn1nc(C(C)(C)C)cc1NC(=O)Nc1ccc(C(=O)N2CCN(Cc3ccncc3)CC2)cc1
< 5 µM | Cn1nc(C(C)(C)C)cc1NC(=O)Nc1ccc(OC2CCN(C(=O)C(C)(C)C)CC2)cc1
< 5 µM | Cn1nc(C(C)(C)C)cc1NC(=O)Nc1ccc(CN2CCN(C(=O)c3ccc(F)cc3F)CC2)cc1F
< 5 µM | Cn1nc(C(C)(C)C)cc1NC(=O)Nc1cc(F)cc(OC2CCN(C(=O)C3(C)CC3(Cl)Cl)CC2)c1 (centres undefined)
< 5 µM | Cc1ccsc1C(=O)N1CCC(Oc2ccc(NC(=O)Nc3cc(C(C)(C)C)nn3C)cc2)CC1
< 5 µM | Cn1nc(C(C)(C)C)cc1NC(=O)Nc1cc(F)cc(OC2CCN(C(=O)c3sccc3Cl)CC2)c1
< 5 µM | Cn1nc(C(C)(C)C)cc1NC(=O)Nc1ccc(OC2CCN(C(=O)c3c[nH]cn3)CC2)cc1
< 5 µM | Cn1nc(C(C)(C)C)cc1NC(=O)Nc1ccc(CN2CCN(C(=O)c3ccc(F)cc3F)CC2)c(F)c1
< 5 µM | CC(C)n1nc(C(C)(C)C)cc1NC(=O)Nc1ccc(CN2CCN(C(=O)c3c(Cl)cccc3Cl)CC2)cc1
< 5 µM | Cn1nc(C(C)(C)C)cc1NC(=O)Nc1cccc(OC2CCN(C(=O)c3ccccc3OC(F)(F)F)CC2)c1
< 5 µM | Cn1nc(C(C)(C)C)cc1NC(=O)Nc1cccc(OC2CCN(C(=O)c3c(Cl)cccc3Cl)CC2)c1
< 5 µM | Cc1ccc(-n2nc(C(C)(C)C)cc2NC(=O)Nc2ccc(N3CCN(C(=O)CC(C)(C)C)CC3)cc2)cc1
< 5 µM | Cn1nc(C(C)(C)C)cc1NC(=O)Nc1ccc(OC2CCN(C(=O)c3cc[nH]c3)CC2)cc1

IC50 | Compound
< 5 µM | CCn1nc(C(C)(C)C)cc1NC(=O)Nc1ccc(CN2CCN(C(=O)c3c(F)cccc3F)CC2)cc1
< 5 µM | CN1CCN(Cc2ccc(C(=O)N3CCC(Oc4cc(F)cc(NC(=O)Nc5cc(C(C)(C)C)nn5C)c4)CC3)cc2)CC1
< 5 µM | Cn1nc(C(C)(C)C)cc1NC(=O)Nc1ccc(CN2CCN(C(=O)c3ccc(F)cc3)CC2)cc1
< 5 µM | Cn1nc(C(C)(C)C)cc1NC(=O)Nc1ccc(OC2CCN(C(=O)c3cn[nH]c3)CC2)cc1
< 5 µM | CC(=O)N1CCN(Cc2ccc(NC(=O)Nc3cc(C(C)(C)C)nn3-c3ccc(C)cc3)cc2)CC1
< 5 µM | COc1cccc(F)c1C(=O)N1CCC(Oc2cccc(NC(=O)Nc3cc(C(C)(C)C)nn3C)c2)CC1
< 5 µM | Cn1nc(C(C)(C)C)cc1NC(=O)Nc1ccc(OC2CCN(C(=O)c3ccc(Cl)nc3)CC2)cc1
< 5 µM | Cn1nc(C(C)(C)C)cc1NC(=O)Nc1ccc(OC2CCN(C(=O)c3ccsc3)CC2)cc1
< 5 µM | CO[C@H](C)C(=O)N1CCN(c2ccc(NC(=O)Nc3cc(C(C)(C)C)nn3-c3ccc(C)cc3)cc2)CC1
< 5 µM | Cn1nc(C(C)(C)C)cc1NC(=O)Nc1ccc(OC2CCN(C(=O)c3c(Cl)cccc3Cl)CC2)cc1
< 5 µM | Cn1nc(C(C)(C)C)cc1NC(=O)Nc1cc(F)cc(OC2CCN(C(=O)c3ccc4[nH]ccc4c3)CC2)c1
< 5 µM | COc1ncccc1C(=O)N1CCC(Oc2ccc(NC(=O)Nc3cc(C(C)(C)C)nn3C)cc2)CC1
< 5 µM | Cc1ccc(-n2nc(C(C)(C)C)cc2NC(=O)Nc2ccc(N3CCN(C(N)=O)CC3)cc2)cc1
< 5 µM | Cn1nc(C(C)(C)C)cc1NC(=O)Nc1ccc(CN2CCN(C(=O)c3ccc(C(F)(F)F)cc3)CC2)cc1
< 5 µM | Cc1ccsc1C(=O)N1CCC(Oc2cc(F)cc(NC(=O)Nc3cc(C(C)(C)C)nn3C)c2)CC1
< 5 µM | Cn1nc(C(C)(C)C)cc1NC(=O)Nc1ccc(OC2CCN(C(=O)c3ccccc3F)CC2)cc1
< 5 µM | Cn1nc(C(C)(C)C)cc1NC(=O)Nc1cc(F)cc(OC2CCN(C(=O)C3CC3(Cl)Cl)CC2)c1 (centres undefined)
< 5 µM | Cn1nc(C(C)(C)C)cc1NC(=O)Nc1ccc(OC2CCN(C(=O)c3c(F)cccc3Cl)CC2)cc1
< 5 µM | Cc1ccc(-n2nc(C(C)(C)C)cc2NC(=O)Nc2ccc(N3CCN(C(=O)C4CCC4)CC3)cc2)cc1
< 5 µM | Cn1nc(C(C)(C)C)cc1NC(=O)Nc1ccc(OC2CCN(S(C)(=O)=O)CC2)cc1
< 5 µM | Cc1ccc(-n2nc(C(C)(C)C)cc2NC(=O)Nc2ccc(N3CCN(C(=O)c4c(Cl)cccc4Cl)CC3)cc2)cc1
